Six compounds from patent EP3508492A1, “TIACUMICIN DERIVATIVES AND THEIR USE AS ANTIBIOTICS” (priority 2018, dated 2019) can be followed below.

≈ marks a conversion by molar mass, not a printed value. Where “and” joins values, the source holds several entries; their conditions need not be identical. Identical values can stand only once. Like-named read-outs stand apart in the source and are kept apart here.

The test system of series [1] is Bacillus subtilis. Nature of the series: MIC determination by broth dilution (CLSI). The note with it: DSM3256. For orientation: Broth dilution looks for growth in wells or tubes with falling amounts of substance.
Method: (§1) The strains of Bacillus subtilis and Staphylococcus aureus were grown overnight at 37 °C on MH II agar plates. (BD™ BBL™ Mueller Hinton II Agar, BD Diagnostics). MIC values were determined by broth dilution method according to the recommendations of the Clinical and Laboratory Standards Institute (CLSI; U.S.A.). The inoculum size was about 7.5 x 10^5 colony forming units/well. The compounds were diluted in H2O from 1.0 mg/mL stock solutions in methanol/H2O 1/1 in a 2-fold dilution series. The microtiter plates were incubated at 37 °C overnight.
The subject of series [2] is Mycobacterium tuberculosis H37Ra. In words: MIC determination from adjusted liquid culture, serial dilution. Format: cell-based. The note with it: ATCC 25177 / H37Ra, strain ATCC25177, Middlebrook 7H9 + 10 % ADC, read after 3-14 days. The procedure: An M. tuberculosis H37Ra (ATCC25177) liquid culture (5 mL, Middlebrook 7H9 broth base + 10 % ADC supplement) was inoculated from original stock (-80°C). After two to five days of shaking at 37°C, an OD600 (optical density at λ = 600 nm) of approximately 1 was observed. […] Plates were covered with plastic foil and a lid. MIC values were determined by visual inspection or by plate reader at 600 nm after 3-14 days (pre-tempered at 37°C with plastic foil, lid removed). Table 1: The MIC values in Table 1 are given in µg/mL and in nmol/mL.

Series [3] concerns Staphylococcus aureus. Nature of the series: MIC determination by broth dilution (CLSI). The note with it: ATCC29213.
Method: as §1
Series [4] can be described thus: Determination of aqueous solubility (UHPLC, caffeine internal standard). It is filed as physicochemical. To be noted: for weight-% of isomer (transacylated regioisomer): five hours at room temperature, equal absorption of both regioisomers assumed; for solubility at 5 h: thermodynamic from solid. The protocol: A standard stock solution of each analyte in MeOH at a concentration of 1.0 mg/mL was prepared. All analytes were completely soluble in MeOH. A standard stock solution of caffeine for use as internal standard (IS) in MeOH was prepared at a concentration of 1 mg/mL. These stock solutions were further diluted with MeOH to calibration standard samples at concentrations of 50, 100, 200, 300, 400, 500 µg/mL of analyte with each sample containing 50 µg/mL of caffeine as IS. These samples were analyzed by UHPLC [Kinetex® EVO C18; 1.7 µm; 100 Å, 50 mm x 2.1 mm; Phenomenex; solvent A: H2O + 0.1 % HCOOH, solvent B: MeCN + 0.1 % HCOOH; 0.4 mL/min; 1.0 µL injection volume, LC time program (min - % B): 0.50 min - 5 %, 3.50 min - 95 %, 3.55 min - 100 %; UV detection at λ = 270 nm]. The peak area of the analyte signal was divided by the peak area of the IS. This peak ratio was plotted against the analyte's concentration to obtain a linear equation.
For reproducibility reasons, water solubility of the fidaxomicin derivatives was quantified in a pH = 7 phosphate buffered aqueous solution (Acros, CAS 7558-79-4). A stock solution of caffeine in phosphate buffer at a concentration of 1.0 mg/mL was prepared and diluted to a concentration of 50 µg/mL. To 1.0 mL of this caffeine solution, the analyte was added as a solid until a saturated solution was obtained. This solution was stirred for five hours at room temperature. The mixture was filtered over a 0.22 µm syringe filter and the obtained solution was analyzed by UHPLC. The concentration was then calculated from the linear equation obtained from the calibration.
With most samples of fidaxomicin derivatives, two peaks for the analyte were detected, viz. one for the original substance and one for its regioisomer formed by transacylation of the isobutyric acid ester. In the following table, the total solubility of each analyte is given with the percentage of isomerization added in parentheses (weight-% of transacylated isomer), assuming that both regioisomers feature approximately the same absorption characteristics. Table 2: Aqueous solubility of fidaxomicin derivatives

Setting [5] is: pH = 7 phosphate buffered aqueous solution.

As for `CCOC(=O)COc1c(Cl)c(O)c(C(=O)O[C@H]2[C@H](O)[C@H](OC)[C@H](OC/C3=C\C=C\C[C@H](O)/C(C)=C/[C@H](CC)[C@@H](O[C@@H]4OC(C)(C)[C@@H](OC(=O)C(C)C)[C@H](O)[C@@H]4O)/C(C)=C/C(C)=C/C[C@@H]([C@@H](C)O)OC3=O)O[C@@H]2C)c(CC)c1Cl` [Compound 5a, Fidaxomicin Ethylacetate], the MIC in series [1] is 32 µg/mL and 28 µM; in series [2], 2 µg/mL to 8 µg/mL and 1.8 µM to 7 µM; in series [3], 16 µg/mL and 14 µM.

On to `CCOC(=O)COc1c(Cl)c(CC)c(C(=O)O[C@H]2[C@H](O)[C@H](OC)[C@H](OC/C3=C\C=C\C[C@H](O)/C(C)=C/[C@H](CC)[C@@H](O[C@@H]4OC(C)(C)[C@@H](OC(=O)C(C)C)[C@H](O)[C@@H]4O)/C(C)=C/C(C)=C/C[C@@H]([C@@H](C)O)OC3=O)O[C@@H]2C)c(OCC(=O)OCC)c1Cl` [Compound 5b, Fidaxomicin Bis(ethylacetate)], for which the MIC is 8 µg/mL to 16 µg/mL and 6.5 µM to 13 µM in series [1]; 1 µg/mL to 4 µg/mL and 0.8 µM to 3.3 µM in series [2]; 32 µg/mL to 64 µg/mL and 26 µM to 52 µM in series [3].

Take `C=CCOC(=O)N1CCN(C(=O)COc2c(Cl)c(O)c(C(=O)O[C@H]3[C@H](O)[C@H](OC)[C@H](OC/C4=C\C=C\C[C@H](O)/C(C)=C/[C@H](CC)[C@@H](O[C@@H]5OC(C)(C)[C@@H](OC(=O)C(C)C)[C@H](O)[C@@H]5O)/C(C)=C/C(C)=C/C[C@@H]([C@@H](C)O)OC4=O)O[C@@H]3C)c(CC)c2Cl)CC1` [Compound 7a, Fidaxomicin Piperazine with alloc Protecting Group]: the MIC in series [1] is > 64 µg/mL and > 50.5 µM; in series [3] it was 16 µg/mL to 32 µg/mL and 12.6 µM to 25.2 µM.

Consider `CCc1c(Cl)c(OCC(=O)N2CCC(O)CC2)c(Cl)c(O)c1C(=O)O[C@H]1[C@H](O)[C@H](OC)[C@H](OC/C2=C\C=C\C[C@H](O)/C(C)=C/[C@H](CC)[C@@H](O[C@@H]3OC(C)(C)[C@@H](OC(=O)C(C)C)[C@H](O)[C@@H]3O)/C(C)=C/C(C)=C/C[C@@H]([C@@H](C)O)OC2=O)O[C@@H]1C` [Compound 10a], for which, in series [4] (setting [5]), the “weight-% of isomer (transacylated regioisomer)” value was determined as 7 weight-%. In addition, in series [4] (phosphate buffer, aqueous buffer, pH = 7 phosphate buffered aqueous solution, stirred five hours at room temperature, 0.22 µm filter, read-out: Conc. (aqueous solubility, total of both regioisomers)), the solubility at 5 h came out at 180 µg/mL (≈ 150 µM).

On to `CCc1c(Cl)c(OCC(=O)N2CCN(c3cc4c(cc3F)c(=O)c(C(=O)O)cn4C3CC3)CC2)c(Cl)c(O)c1C(=O)O[C@H]1[C@H](O)[C@H](OC)[C@H](OC/C2=C\C=C\C[C@H](O)/C(C)=C/[C@H](CC)[C@@H](O[C@@H]3OC(C)(C)[C@@H](OC(=O)C(C)C)[C@H](O)[C@@H]3O)/C(C)=C/C(C)=C/C[C@@H]([C@@H](C)O)OC2=O)O[C@@H]1C` [Compound 11a, Fidaxomicin-Ciprofloxacin Hybrid], for which the MIC in series [2] was 16 µg/mL to 64 µg/mL and 11.2 µM to 44.8 µM; in series [3] it was > 64 µg/mL and > 44.8 µM.

For `CCc1c(Cl)c(O)c(Cl)c(O)c1C(=O)O[C@H]1[C@H](O)[C@H](OC)[C@H](OCC2=CC=CC[C@H](O)C(C)=C[C@H](CC)[C@@H](O[C@@H]3OC(C)(C)[C@@H](OC(=O)C(C)C)[C@H](O)[C@@H]3O)C(C)=CC(C)=CC[C@@H]([C@@H](C)O)OC2=O)O[C@@H]1C` [Fidaxomicin, 3-(((6-Deoxy-4-O-(3,5-dichloro-2-ethyl-4,6-dihydroxybenzoyl)-2-O-methyl-β-D-mannopyranosyl)oxy)-methyl)-12(R)-[(6-deoxy-5-C-methyl-4-O-(2-methyl-1-oxopropyl)-β-D-lyxo-hexopyranosyl)oxy]-11(S)-ethyl-8(S)-hydroxy-18(S)-(1(R)-hydroxyethyl)-9,13,15-trimethyloxacyclooctadeca-3,5,9,13,15-pentaene-2-one, reference compound], the MIC was 8 µg/mL to 16 µg/mL and 7.6 µM to 15.1 µM in series [1]; 4 µg/mL and 3.8 µM in series [2]; 8 µg/mL to 16 µg/mL and 7.6 µM to 15.1 µM in series [3]. For the same compound, in series [4] (pH 7, aqueous buffer), the solubility at 5 h was found to be 84 µg/mL (≈ 79.4 µM). In addition, the “weight-% of isomer (transacylated regioisomer)” value in series [4] (setting [5]) came out at 9 weight-%.

For orientation: MIC means the lowest concentration that inhibits growth of the organism. The term solubility denotes the concentration that dissolves in the medium under given conditions.
